In patent publication US11147781B2, “Methods for alleviating statin myopathy” (priority 2014, dated 2021):
Like-named read-outs stand apart in the source and are kept apart here.

Assays:
[1] = system: patients with statin-induced myopathy (SIM); assay type: in vivo, human; set-up: triglycerides: unit not given here
Procedure: A clinical study was conducted to evaluate the effects of HMB on patients with statin-induced myopathy (SIM). A total of eighteen patients were evaluated for the study with informed written consent obtained. Of the eighteen patients, fourteen (14) ultimately qualified as having true statin myalgia and were enrolled in the study. All patients enrolled were under the care of a board certified cardiologist.
A summary of the enrolled patients and their outcomes is as follows: • 1. All 14 had type 2a or mixed hyperlipidemia. • 2. All 14 had been treated with multiple statin agents, in each case withdrawing from the statin agent due to myalgia/myopathy. • 3. Of the 14 patients enrolled, 4 had elevated CPKs (creatine phosphokinase, a biomarker for myositis/rhabdomyolysis) secondary to SIM. • 4. Five of the 14 patients had undergone prior percutaneous coronary intervention with stents. • 5. One of the 14 patients had undergone prior coronary bypass surgery. • 6. Four of the 14 patients had angiographically documented moderate coronary artery disease not requiring percutaneous coronary intervention (PCI)/coronary bypass. • 7. Four of the 18 patients were disqualified due to the following: • Patient's leg myalgia was secondary to angiographically proven peripheral vascular disease, not SIM and symptoms were consistent with this diagnosis. • Patient's unilateral leg pain was secondary to neuropathy, not SIM. • Patient complained of GI upset on combined statin+3-hydroxy 3-methybutyrate and medication was discontinued. […] All 14 qualified patients remained on combination statin (in some cases with Zetia to achieve target) plus HMB therapy after the initial duration of the study. As noted, of those who had previously discontinued statin therapy, all had been tried on multiple statin agents without success. • 9. Follow up was conducted with all patients including out-patient visits and phone conversation. • 10.
The free acid form was used in one patient who experienced major CPK elevations (900-1000 IU/L range) and disabling myalgia on statins.
For this study, patients were evaluated using multiple laboratories with variable lab normal ranges, which are included. In the patient population as a whole, the full spectrum of SIM is presented, including statin myalgia […] CPK elevation (myositis or rhabdomyolysis depending on severity), elevation of CPK without myalgia, post-statin elevation of CPK with and without pain, post-statin myalgia without CPK elevation, and, finally, statin-induced muscle weakness without myalgia. Also represented were other statin-induced side effects such as short-term memory loss and glucose intolerance.

acute rhabdomyolysis = test: In-patient treatment of acute rhabdomyolysis with HMB; assay type: in vivo, human; conditions: HMB free acid (gel form) 6 g twice daily for 3 days, within 3 days
Text: HMB administration is used to treat acute rhabdomyolysis in an in-patient setting.
Acute rhabdomyolysis is a rare but extreme and potentially life-threatening disorder that can occur in all groups in a setting of dehydration, trauma, and in younger age groups, intense exercise. […] At this time there is no known method of reversing rhabomyolysis apart from bed rest and hydration.
Protocol: measure patient's CPK; if value exceeds 10 times the upper limit of normal (200 IU/L, depending on laboratory-specific established normal range), initiate the following: • 1. Admit to ICU; • 2. Initiate IV 0.9% saline at 165 ml/hour; • 3. Initiate HMB free acid (gel form), dose 6 g twice daily for 3 days; • 4. Lab: CPK, BUN, creatinine, glucose and electrolytes every 12 hours for 3 days.

[2] = free acid form versus calcium monohydrate form; cited from earlier work
[3] = Patient A-1, 3 months, Crestor 10 mg daily + 2 g BID
[4] = Patient F-6, atorvastatin 40 mg + Zetia 10 mg + 2 g BID, 2-month follow-up

SMILES: CC(C)c1nc(N(C)S(C)(=O)=O)nc(-c2ccc(F)cc2)c1/C=C/[C@@H](O)C[C@@H](O)CC(=O)O [Crestor®, rosuvastatin, reference compound]
- CPK under statin ([1]; human, in vivo): 320 IU/L

SMILES: CC(C)(O)CC(=O)O [HMB free acid]
- CPK ([1]; Patient D-4, free acid 2 gelcaps TID (3 g daily), after ten days, before 378): 257 IU/L
- patient-reported state ([1]; Patient D-4, free acid 3 g daily, ten days): felt better
- fasting blood glucose ([1]; Patient D-4, free acid 3 g daily, ten days, before >200): 100 mg %
- symptoms ([1]; Patient O-15, converted to free acid 1 g TID, three months post-enrollment): completely symptom-free
- change in CPK ([1]; free acid gel cap, one patient (D-4) with major CPK elevations on statins): significant decrease
- symptoms ([1]; free acid gel cap, one patient (D-4), improvement over calcium monohydrate form): resolution in symptoms
- CPK (acute rhabdomyolysis): below 200 IU/L
- bioavailability [2]: more bioavailable

SMILES: CC(C)(O)CC(=O)[O-].CC(C)(O)CC(=O)[O-].[Ca+2] [calcium HMB monohydrate]
- CPK ([1]; Patient A-1, 2 g BID, 9 days later, before HMB 242, range 26-192): 87 IU/L
- time to complete resolution of all pain ([1]; Patient A-1, 2 g BID, post-statin myositis, before re-introducing statin): 3 days
- CPK [1, 3]: 110 IU/L
- LDL [1, 3]: 72 mg/dL
- symptoms [1, 3]: asymptomatic
- LDL ([1]; Patient B-2, Vytorin 10/40 + 2 g BID, 50 days, before 168): 110 mg %
- CPK ([1]; Patient B-2, Vytorin 10/40 + 2 g BID, 50 days, lab normal range 44-196): 173 IU/L
- symptoms ([1]; Patient B-2, six months later, on Vytorin): completely asymptomatic
- symptoms ([1]; Patient C-3, Crestor 10 mg daily + 2 g BID, three months): completely symptom free
- myalgia ([1]; Patient D-4, Crestor 20 mg + Zetia 10 mg + 2 g BID, 37 days): resolved except for very mild discomfort climbing stairs
- CPK ([1]; Patient D-4, Crestor 20 mg + Zetia 10 mg + 2 g BID, 37 days, before 705, range 26-192): 277 IU/L
- LDL ([1]; Patient D-4, Crestor 20 mg + Zetia 10 mg + 2 g BID, 37 days, before >200 mg %): 49
- CPK ([1]; Patient D-4, five months later, diabetes uncontrolled): 378 IU/L
- bilateral calf myalgia ([1]; Patient E-5, 2 g BID, post-statin myalgia): resolved rapidly and completely
- CPK ([1]; Patient E-5, after HMB treatment 2 g BID, range 39-308): 110 IU/L
- myalgia [1, 4]: completely resolved
- short term memory loss [1, 4]: improved
- LDL ([1]; Patient F-6, atorvastatin 40 mg + Zetia 10 mg + 2 g BID, repeat): 43
- CPK ([1]; Patient G-7, statin + 2 g BID, four weeks, range 29-168): 39 IU/L
- LDL ([1]; Patient G-7, statin + 2 g BID, four weeks, reduced from 169): 108
- symptoms ([1]; Patient G-7, statin resumed + 2 g BID, approximately four weeks): free of all symptoms of myalgia and muscle weakness
- symptoms ([1]; Patient H-8, 2 g BID combination, one month): completely asymptomatic
- bilateral thigh pain ([1]; Patient J-10, Lipitor 10 mg daily + 2 g BID, one month): complete resolution of bilateral thigh pain
- CPK reduction ([1]; Patient K-11, 47 days): 32%
- LDL reduction ([1]; Patient K-11, 47 days): 50%
- LDL ([1]; Patient K-11, Crestor 20 mg daily + 2 g BID, 47 days, before 282): 139
- CPK ([1]; Patient K-11, Crestor 20 mg daily + 2 g BID, 47 days, before 282 (29-168)): 191 IU/L
- symptoms ([1]; Patient K-11, exercises near-daily): pain-free
- LDL ([1]; Patient L-12, Crestor 5 mg daily + 2 g BID, two months, before 122): 100
- triglycerides ([1]; Patient L-12, Crestor 5 mg daily + 2 g BID, two months, before 261): 193
- symptoms ([1]; Patient L-12, two months): pain-free
- CPK ([1]; Patient L-12, two months, range 29-168): 87 IU/L
- LDL ([1]; Patient M-13, Crestor + 2 g BID, four months, before 244): 114
- CPK ([1]; Patient M-13, Crestor + 2 g BID, four months, before 320, range 39-308): 210 IU/L
- myalgia ([1]; Patient M-13, follow-up five months after enrollment): All myalgia had resolved
- CPK reduction ([1]; Patient M-13, four months): 34%
- LDL reduction ([1]; Patient M-13, four months): 53%
- muscle weakness ([1]; Patient N-14, statin continued + 2 g BID, 13 days): symptoms of muscle weakness had resolved
- CPK ([1]; Patient O-15, 2 months post-enrollment, 5 days/week weight program, before 274 (30-200)): 310 IU/L
- LDL ([1]; Patient O-15, 2 months post-enrollment, before 30): 53
- quadriceps/thigh pain ([1]; Patient O-15, combined statin therapy + 2 g BID, four weeks): complete resolution of all quadriceps/thigh pain
- thigh pain ([1]; Patient P-16, simvastatin + 2 g BID, sixteen days, persistent groin stiffness): no longer had any thigh pain

SMILES: CCC(C)(C)C(=O)O[C@H]1C[C@@H](C)C=C2C=C[C@H](C)[C@H](CC[C@@H]3C[C@@H](O)CC(=O)O3)[C@H]21 [simvastatin, reference compound]
- CPK under statin (severe rhabdomyolysis) ([1]; human, in vivo): 900-1000 IU/L
